Tests used:
[1] = target: T1, OASS (O-acetylserine sulfhydrylase) (Arabidopsis thaliana, UniProt P47998); experiment: biochemical
[2] = target: T1, OASS (O-acetylserine sulfhydrylase); experiment: fluorescence polarization competition; assay type: binding

T1 sequence (P47998 whole entry): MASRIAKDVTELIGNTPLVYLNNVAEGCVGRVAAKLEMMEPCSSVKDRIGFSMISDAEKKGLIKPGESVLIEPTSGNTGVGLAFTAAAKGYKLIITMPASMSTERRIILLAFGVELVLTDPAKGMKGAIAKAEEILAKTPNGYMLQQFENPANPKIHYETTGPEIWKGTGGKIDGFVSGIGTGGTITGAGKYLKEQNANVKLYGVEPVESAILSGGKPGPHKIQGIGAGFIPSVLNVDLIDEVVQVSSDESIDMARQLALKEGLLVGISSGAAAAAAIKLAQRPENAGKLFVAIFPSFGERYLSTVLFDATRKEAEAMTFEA

SMILES	IC50 [1] [µM]	IC50 [2] [µM]	IC50 ([1]; read-out: FP IC50, inhibitor) [µM]
COc1ccc(-c2cc(NC(=O)c3ccccc3-c3ccccc3C(=O)O)n(CCO)n2)cc1 [PJ34]	–	50	–
CC(C)Cc1ccc(-c2csc(NC(=O)c3ccccc3-c3ccccc3C(=O)O)n2)cc1 [PJ14]	4.8	5.4	–
O=C(O)c1ccccc1-c1ccccc1C(=O)Nc1nc(-c2ccc(Cl)cc2Cl)cs1 [PJ15]	–	4.7	–
Nc1cc(F)ccc1-c1csc(NC(=O)c2ccccc2-c2ccccc2C(=O)O)n1 [compound 17]	2.7	–	–
O=C(O)c1ccccc1-c1cccnc1C(=O)Nc1nc(-c2ccc(Cl)cc2Cl)cs1 [compound 18]	–	–	12.2

Continued, values first:

IC50 [1] [µM]	IC50 [2] [µM]	IC50 ([1]; read-out: FP IC50, inhibitor) [µM]	SMILES
6.7	–	–	COc1ccc(-c2nc(NC(=O)c3ccccc3-c3ccccc3C(=O)O)sc2C)cc1 [compound 33, 33]
2	–	–	NCCc1ccc(-c2csc(NC(=O)c3ccccc3-c3ccccc3C(=O)O)n2)cc1 [PJ13]
–	–	4.1	O=C(O)c1ccccc1-c1ccccc1C(=O)Nc1cccc(-c2nc3ccccc3[nH]2)c1 [PJ8]
10.1	–	–	O=C(Nc1cccc(NC(=O)c2ccccc2-c2ccccc2C(=O)O)c1)c1nccs1 [compound 11, 11]
